Results published in patent US11278561B2, “Combination treatment for hematological cancers” (Geron Corporation, priority 2016, dated 2022).
{PalmAG} = palmitoyl amide conjugated through an aminoglycerol linker to the 5'-thiophosphate; {PalmN} = palmitoyl amide conjugated through the terminal 3'-amino group; [NPS] = N3'→P5' thiophosphoramidate internucleoside linkage; {NH2} = amino group

Legend:
Type in all cases: cell-based
[1] = test system: MOLM-13 cells; assay: Annexin V / Propidium Iodide flow cytometry apoptosis assay in MOLM-13; design: key to Excess over HSA / Excess over BLISS: excess = combination minus HSA/Bliss expected, in % apoptotic cells; conditions: for Loewe Excess: ABT-199 nM: r7 1000, r8 500, r9 100, r10 20, r11 5, r12 1, r13 0.2, r14 0.04, r15 0; for Excess over HSA: MOLM-13, 96 hours, ABT-199 0 nM, r7 Mismatch 50 μM, r8 Mismatch 25 μM, r9 Non-complimentary 50 μM, r10 Non-complimentary 25 μM
Procedure: (§1) AML tumor cells KG-1 (ATCC #CCL-246) and MOLM-13 (DSMZ #ACC554) were plated at a density of ˜20,000 cells per well on 96-well polystyrene U-bottom tissue culture plates (Corning catalog #353777) in RPMI-1640 (ThermoFisher catalog #11875-085) supplemented with 10% fetal bovine serum (ThermoFisher catalog #16140-089) and 1% penicillin/streptomycin antibiotic cocktail (ThermoFisher catalog 15140-122) and grown in a 37° C. incubator under humidified 5% CO2 atmosphere.
(§2) At 48 and 96 hours, cells were measured for healthy, early apoptotic and apoptotic populations with an Annexin V (interior cell membrane stain) plus Propidium Iodide (PI, DNA binding dye) flow cytometry assay kit (BioLegend catalog 640914). Annexin V detects the externalization of phosphatidylserine in apoptotic cells using recombinant annexin V conjugated to green-fluorescent FITC dye and dead cells using Propidium iodide (PI). Propidium iodide stains necrotic cells with red fluorescence. After treatment with both probes, early apoptotic cells show green fluorescence, apoptotic (dead) cells show red and green fluorescence, and live cells show little or no fluorescence. […] Cells were stained for 30 minutes at 4° C. in the dark, followed by 3× washes with PBS and suspension in FACs Stain Buffer (BD catalog 554657) prior to interrogation on a BD FACs Canto flow cytometer for forward scatter, side scatter, FITC, and PE channels. […] The percentage of apoptotic cells (double labeled) was used to calculate combination effects using both the Highest Single Agent (HSA) and Bliss additivity models (J Tang et al. Frontiers in Pharmacology. 2015; 6 (181)).
(§3) Using the HSA model, the cytotoxic effect of the combined condition (“C”) was compared to the effect generated by each of the single agent controls (“A” or “B”) for the respective dose in the combination: Excess over HSA=C−A (if A>B) or C−B (if A<B)
(§4) The Bliss model performs a similar comparison, but instead of the highest effect of single agent, the Bliss model subtracts from the combination a value equal to the sum of each single agent minus their product: Excess over Bliss=C−[(A+B)−(A*B)]
Treated cells were analyzed by Flow cytometry for Annexin V and Propidium Iodide staining as described previously. Events gated in the apoptotic population (Annexin V+/Propidium Iodide+) were used to determine synergy scores for the combination matrix. Combination data analysis was generated by the Horizon Chalice™ Analyzer Software (Horizon Discovery Group, Cambridge, UK). […] Mismatch and non-complimentary controls were not utilized in this experiment.
Combination conditions undergo isobolar analysis to generate a combination index and graphically represent the behavior of a combination with synergistic pairs falling below the isobologram and antagonistic falling above it (additive combinations would be expected to fall on the line). The Horizon Chalice™ Analyzer Software additionally provides a synergy score, with values greater than 1 indicating synergy.

[2] = test system: KG-1 cells; assay: Annexin V / Propidium Iodide flow cytometry apoptosis assay in KG-1; design: key to Excess over HSA / Excess over BLISS: excess in % apoptotic (Annexin V/PI double-labeled) cells over HSA/Bliss; conditions: ABT-199 0 nM, r7 Mismatch 50 μM, r8 Mismatch 25 μM, r9 Non-complimentary 50 μM, r10 Non-complimentary 25 μM
Procedure: as §1, §2, §3, §4

[3] = test system: MOLM-13 cells; assay: Annexin V / Propidium Iodide flow cytometry apoptosis assay in MOLM-13; design: key to Excess over BLISS: Excess over Bliss = C−[(A+B)−(A*B)], % apoptotic cells; key to Excess over HSA: excess = combination minus HSA/Bliss expected, in % apoptotic cells; conditions: for Loewe Excess: MOLM-13, 48 hour treatment, ABT-199 nM: r7 1000, r8 500, r9 100, r10 20, r11 5, r12 1, r13 0.2, r14 0.04, r15 0; for Excess over BLISS / Excess over HSA: ABT-199 0 nM, r7 Mismatch 50 μM, r8 Mismatch 25 μM, r9 Non-complimentary 50 μM, r10 Non-complimentary 25 μM

For “Non-complimentary: control oligonucleotide 5′-AACAGATTGGGAT-R-3′ (SEQ ID NO: 3), palmitoyl amide on the terminal 3′ amino group of an NPS oligonucleotide (all [NPS], 3' {PalmN}, sugars by position and methylation of C not given here)”, the “Loewe Excess” value ([1]; MOLM-13, 48 hour treatment, Non-Complimentary 1 μM) was 6, the “Loewe Excess” value ([1]; MOLM-13, 48 hour treatment, Non-Complimentary 10 μM) was −2 and the “Loewe Excess” value ([1]; MOLM-13, 48 hour treatment, Non-Complimentary 50 μM) was −2. The “Loewe Excess” value ([1]; MOLM-13, 48 hour treatment, Non-Complimentary 75 μM) was 1, the “Loewe Excess” value ([1]; MOLM-13, 96 hour treatment, Non-Complimentary 1 μM) was 1 and the “Loewe Excess” value ([1]; MOLM-13, 96 hour treatment, Non-Complimentary 5 μM) was 0. For the same substance, the “Loewe Excess” value ([1]; MOLM-13, 96 hour treatment, Non-Complimentary 10 μM) was −1, the “Loewe Excess” value ([1]; MOLM-13, 96 hour treatment, Non-Complimentary 25 μM) was −1 and the “Loewe Excess” value ([1]; MOLM-13, 96 hour treatment, Non-Complimentary 50 μM) was −1. For the same substance, the “Loewe Excess” value ([1]; MOLM-13, 96 hour treatment, Non-Complimentary 75 μM) was 1, the “Excess over HSA” value [1] was 0 and the “Excess over BLISS” value ([2]; KG-1, 48 hours) was 0. For the same substance, the “Excess over HSA” value ([2]; KG-1, 48 hours) was 0, the “Excess over BLISS” value ([2]; KG-1, 96 hours) was 0 and the “Excess over HSA” value ([2]; KG-1, 96 hours) was 0. The “Loewe Excess” value ([3]; Non-Complimentary 5 μM) was −1, the “Loewe Excess” value ([3]; Non-Complimentary 25 μM) was −1 and the “Excess over BLISS” value ([3]; MOLM-13, 48 hours) was 0. The “Excess over HSA” value ([3]; MOLM-13, 48 hours) was 0 and the “Excess over BLISS” value ([3]; MOLM-13, 96 hours) was 0.

In the case of “Mismatch: control oligonucleotide 5′-R-TAGGTGTAAGCAA-NH2-3′ (SEQ ID NO: 2), palmitoyl amide conjugated NPS-linked oligonucleotide (all [NPS], 5' {PalmAG}, 3' {NH2}, sugars by position and methylation of C not given here)”, the “Loewe Excess” value ([1]; MOLM-13, 48 hour treatment, Mismatch 1 μM) was 4, the “Loewe Excess” value ([1]; MOLM-13, 48 hour treatment, Mismatch 5 μM) was 2 and the “Loewe Excess” value ([1]; MOLM-13, 48 hour treatment, Mismatch 25 μM) was 1. The “Loewe Excess” value ([1]; MOLM-13, 48 hour treatment, Mismatch 50 μM) was 0, the “Loewe Excess” value ([1]; MOLM-13, 48 hour treatment, Mismatch 75 μM) was 0 and the “Loewe Excess” value ([1]; MOLM-13, 96 hour treatment, Mismatch 1 μM) was 1. For the same substance, the “Loewe Excess” value ([1]; MOLM-13, 96 hour treatment, Mismatch 5 μM) was 0, the “Loewe Excess” value ([1]; MOLM-13, 96 hour treatment, Mismatch 10 μM) was −1 and the “Loewe Excess” value ([1]; MOLM-13, 96 hour treatment, Mismatch 25 μM) was −2. For the same substance, the “Loewe Excess” value ([1]; MOLM-13, 96 hour treatment, Mismatch 50 μM) was −1, the “Loewe Excess” value ([1]; MOLM-13, 96 hour treatment, Mismatch 75 μM) was 1 and the “Excess over HSA” value [1] was 0. For the same substance, the “Excess over BLISS” value ([2]; KG-1, 48 hours) was 0, the “Excess over HSA” value ([2]; KG-1, 48 hours) was 0 and the “Excess over BLISS” value ([2]; KG-1, 96 hours) was 0. The “Excess over HSA” value ([2]; KG-1, 96 hours) was 0, the “Loewe Excess” value ([3]; Mismatch 10 μM) was −1 and the “Excess over BLISS” value ([3]; MOLM-13, 48 hours) was 0. For the same substance, the “Excess over HSA” value ([3]; MOLM-13, 48 hours) was 0 and the “Excess over BLISS” value ([3]; MOLM-13, 96 hours) was 0.
